The values that follow come from patent US20180303092A1, “AMINE SALTS OF CARBOXYLIC ACID HERBICIDES” (Taminco BVBA, priority 2017, published 2018).

What all share (format): physicochemical
A short description of series [1]: Maximum loading of herbicide amine salt in water (Karl-Fischer water content, HCl titration of amine). To be noted: for Max Load amine g/L: amine in maximum loaded solution in water; for Max Load g ae/L: maximum loaded solution in water, acid equivalent of herbicide; for maximum loading: summary text b115. The text has this: Neutralizing acidic herbicides (e.g., 2,4-D, dicamba, glyphosate, glufosinate) with amines can result in the formation of highly water soluble salts. However, practical inconveniences may occur when adding liquid amines to the solid herbicides, such as the formation of wetted powder, poorly mixed slurries, two apparently non-mixed layers, etc. To efficiently prepare a salt, the method, shown as a flowchart in FIG. 1, has been developed.
Referring to FIG. 1, step 100 involves using a mass balance to weigh 25 g of the active ingredient (a solid acidic herbicide, such as 2,4-D or dicamba) in a glass bottle. An equimolar amount of a basic amine (typically a liquid) is added to this glass bottle. Last, 2 mL of water is added. After adding the three compounds, the bottle is capped and placed on a shaking device for at least 12 hours.
At step 109, theoretical neutralization has taken place. The salt concentration can be quantified by titration. To confirm that the solid layer is solid salt and the top layer is a saturated (max. loading) solution, a small amount of water is added (the amounts of water should be small enough to avoid a complete dissolution of the solid salt). After re-equilibrium during at least 12 hours of shaking, and under the condition that two phases are still present, the salt concentration is determined again. If salt concentrations are identical as the original values, then it can be concluded that a maximum loaded solution was obtained.
To determine maximum loading of the salt in water, the method shown in the flowchart of FIG. 1 was used. The resulting sample contained at least two layers: a top layer of liquid and a bottom layer of solid salt. A water and amine determination was made of the top layer.
To check the water content, a well-established method of Karl-Fischer was used. This method gives an accurate wt % of H2O in the sample.
To determine the amine content, HCl-titration was used. HCl (0.1 N) was used as the titrant, and methanol was used as the solvent. 100-400 mg of the sample was taken from the liquid layer so that only 10-20 mL of the titrant was needed. The result was given in an EP. The following calculation was used to obtain the amine wt %:
In general, the sample's liquid phase only contains three components: water, free amine, and the herbicide salt. Therefore, the following calculation was used to determine the salt wt %:
wt %salt=100−wt %amine−wt %water
The results below are reported in g a.e./L (acid equivalent). […] The results were calculated using the following equation: […]
The MMs in the equation above are molecular weights (g/mol). ρ is the density of the liquid (g/mL), which may be measured using the density meter Anton Paar DMA 4500. F is a factor that takes into account the amount of base or acid groups on the amine or acid, respectively.
The g amine/L reported below was calculated using the following equation: […]
25.02 g of dicamba herbicide was mixed with 4.16 g of 1,2-DAP and 5.88 g of water. The ingredients were shaken for a minimum of 24 hours at room temperature (20° C.) to obtain an oversaturated salt solution (with precipitated salt crystals). Theoretically, 1 mol of dicamba can be neutralized using 0.5 mol of 1,2-DAP. Water was gradually added until all the salt crystals were dissolved to form a maximum loaded clear solution. The loading of the active ingredient was determined based on the amine content by HCl titration and the water content by Karl-Fischer.
Using the same methodology as described in Example 1, high-loaded 2,4-D salt solutions were prepared.

Series [2] can be described thus: Viscosity of max load amine salt solutions (Brookfield viscometer, nr. 87 spindle). To be noted: 20° C. The procedure: The viscosity of the solutions prepared as above was determined using the Brookfield nr. 87 spindle. The applied speed depended on the viscosity of the sample. The torque applied was 50-80% of the machine's maximum. The results are expressed as mPa.
(§1) Several amine herbicide formulations were prepared as described above in Examples 1 and 2. The viscosity of various formulations was measured using a Brookfield viscometer with nr.87 spindle at 20° C. Wettability was measured by visually measuring the contact angle after placing a standard droplet on a parafilm layer (hydrophobic).

Series [3] in a line: Wetting properties: contact angle of a droplet of max load product on parafilm layer. To be noted: droplet on hydrophobic parafilm, read by eye. The procedure: A visual test was used to determine the wetting property. FIG. 2 is an illustration of the test. A small droplet 11 of the max load product mentioned above was deposited by a syringe pointed vertically down onto a parafilm layer 10, which is hydrophobic. A profile picture of the droplet 11 was then captured by a camera. The approximate contact angle 13 of the droplet 11 with the parafilm layer 10 was then measured by eye using a protractor.
The wetting angle determines the surface energy or chemical affinity of the salt solution with the apolar reference material. A high wetting angle indicates a […] of hydrophobic surfaces.
as §1

[4] abbreviates: dicamba amine salts, room temperature (20° C.).
Where [5] appears, read: dicamba amine salt concentrates.

On to `C[N+](C)(C)CCO.O=C([O-])COc1ccc(Cl)cc1Cl` [2,4-D Cbase salt, reference compound], for which, in series [1] (2,4-D amine salts), the “Max Load amine g/L” value is 315.6 amine g/L and the “Max Load g ae/L” value turned out to be 195.0 g ae/L. Besides, the Viscosity in series [2] (2,4-D amine salts) is given as 12.4 mPa. In addition, the “Wetting Angle” value in series [3] (2,4-D amine salts) was 145 °.

Take `CNC.O=C(O)COc1ccc(Cl)cc1Cl` [2,4-D DMA salt, reference compound]: in series [1] (2,4-D amine salts), the “Max Load amine g/L” value was determined as 264.4 amine g/L and the “Max Load g ae/L” value was 936.1 g ae/L. Also, the Viscosity in series [2] (2,4-D amine salts) was determined as 38.8 mPa. Moreover, the “Wetting Angle” value in series [3] (2,4-D amine salts) is 130 °.

As to `CN(C)CCO.O=C(O)COc1ccc(Cl)cc1Cl` [2,4-D DMAE salt], in series [1] (2,4-D amine salts), the “Max Load amine g/L” value was 316.9 amine g/L and the “Max Load g ae/L” value came out at 624.7 g ae/L. Also, the Viscosity in series [2] (2,4-D amine salts) was found to be 74.0 mPa. Moreover, the “Wetting Angle” value in series [3] (2,4-D amine salts) is 105 °.

`CN(C)CCCN.O=C(O)COc1ccc(Cl)cc1Cl` [2,4-D DMAPA salt]: in series [1] (2,4-D amine salts), the “Max Load amine g/L” value is recorded as 210.6 amine g/L and the “Max Load g ae/L” value was determined as 863.5 g ae/L. For the same compound, the Viscosity in series [2] (2,4-D amine salts) was 1,455.0 mPa. Further, the “Wetting Angle” value in series [3] (2,4-D amine salts) is 125 °.

`CC(C)CN.O=C(O)COc1ccc(Cl)cc1Cl` [2,4-D MIBA salt]: in series [1] (2,4-D amine salts), the “Max Load amine g/L” value came to 183.5 amine g/L and the “Max Load g ae/L” value was 497.8 g ae/L. In addition, the Viscosity in series [2] (2,4-D amine salts) came out at 60.1 mPa. Also, the “Wetting Angle” value in series [3] (2,4-D amine salts) is listed as 155 °.

For `CNCCO.O=C(O)COc1ccc(Cl)cc1Cl` [2,4-D MMEA salt], in series [1] (2,4-D amine salts), the “Max Load amine g/L” value stood at 302.5 amine g/L and the “Max Load g ae/L” value came to 774.3 g ae/L. The Viscosity in series [2] (2,4-D amine salts) is given as 21.2 mPa. Further, the “Wetting Angle” value in series [3] (2,4-D amine salts) stood at 110 °.

Consider `CC(N)CN.COc1c(Cl)ccc(Cl)c1C(=O)O.COc1c(Cl)ccc(Cl)c1C(=O)O` [Dicamba 1,2-DAP salt], for which, in series [1] (dicamba 1,2-DAP salt, Example 1), the “Maximum loading, amine” value is 365.9 g amine/L. For the same compound, in series [1] (dicamba amine salts), the “Max Load amine g/L” value was 365.9 amine g/L and the maximum loading is on record as 803.2 g/L. The “Max Load g ae/L” value in series [1] (setting [4]) stood at 803.2 g ae/L. The Viscosity in series [2] (setting [5]) is on record as 218.0 mPa. Moreover, the “Wetting Angle” value in series [3] (setting [5]) was found to be 105 °.

For `COc1c(Cl)ccc(Cl)c1C(=O)[O-].C[N+](C)(C)CCO` [Dicamba Cbase salt], the “Max Load amine g/L” value in series [1] (dicamba amine salts) was 308.5 amine g/L. Besides, the “Max Load g ae/L” value in series [1] (setting [4]) was 481.5 g ae/L. The Viscosity in series [2] (setting [5]) is recorded as 13.5 mPa. The “Wetting Angle” value in series [3] (setting [5]) was 115 °.

As for `COc1c(Cl)ccc(Cl)c1C(=O)O.NCCOCCO` [Dicamba DGA salt, reference compound], in series [1] (dicamba amine salts), the “Max Load amine g/L” value was 435.5 amine g/L and the maximum loading is on record as 854.9 g/L. Further, the “Max Load g ae/L” value in series [1] (setting [4]) amounted to 854.9 g ae/L. The Viscosity in series [2] (setting [5]) is given as 562.5 mPa. In addition, in series [3] (setting [5]), the “Wetting Angle” value turned out to be 120 °.

Take `CNC.COc1c(Cl)ccc(Cl)c1C(=O)O` [Dicamba DMA salt, reference compound]: in series [1] (dicamba amine salts), the “Max Load amine g/L” value is 211.1 amine g/L and the maximum loading is 1036 g/L. Moreover, in series [1] (setting [4]), the “Max Load g ae/L” value came to 1036.8 g ae/L. Also, the Viscosity in series [2] (setting [5]) is 58.8 mPa. For the same compound, in series [3] (setting [5]), the “Wetting Angle” value amounted to 135 °.

Regarding `CN(C)CCO.COc1c(Cl)ccc(Cl)c1C(=O)O` [Dicamba DMAE salt], the “Max Load amine g/L” value in series [1] (dicamba amine salts) was determined as 408.3 amine g/L. The “Max Load g ae/L” value in series [1] (setting [4]) stood at 849.0 g ae/L. The Viscosity in series [2] (setting [5]) was found to be 184.4 mPa. The “Wetting Angle” value in series [3] (setting [5]) is reported as 115 °.

In the case of `CC(C)CN.COc1c(Cl)ccc(Cl)c1C(=O)O` [Dicamba MIBA salt], the “Max Load amine g/L” value in series [1] (dicamba amine salts) was 475.0 amine g/L. For the same compound, the “Max Load g ae/L” value in series [1] (setting [4]) turned out to be 713.7 g ae/L. In addition, in series [2] (setting [5]), the Viscosity is on record as 46.1 mPa. Also, in series [3] (setting [5]), the “Wetting Angle” value turned out to be 130 °.

Take `CNCCO.COc1c(Cl)ccc(Cl)c1C(=O)O` [Dicamba MMEA salt]: the “Max Load amine g/L” value in series [1] (dicamba amine salts) is on record as 357.7 amine g/L. Besides, the “Max Load g ae/L” value in series [1] (setting [4]) worked out at 928.8 g ae/L. Also, the Viscosity in series [2] (setting [5]) was 3,967.0 mPa. Moreover, the “Wetting Angle” value in series [3] (setting [5]) is 120 °.
